Source: publication PMC6199744, “Development of Chemical Proteomics for the Folateome and Analysis of the Kinetoplastid Folateome” (ACS Infectious Diseases, 2018)

System: L. major lysate proteins
Experiment: Multitargeted bead mixture chemoproteomics, single concentration competition, proteome-wide
Assay type: binding
Settings: for fold change / fold change relative to vehicle control: vehicle control = 1; for fold change relative to vehicle control: competition with free ligand

CCCCCCOc1cccc(Cc2cnc(N)nc2N)c1 [compound 2]
fold change vs vehicle control (protein LMJF.22.0730 HY[…], CONSERVED): 1.07
fold change (protein LMJF.22.1460 I/6 AUTOANTIGEN-LIKE PROTEIN): 1.1
fold change vs vehicle control (protein LMJF.22.1540 ALANYL-TRNA SYNTHETASE, PUTATIVE): 1.04
fold change vs vehicle control (protein LMJF.23.0370 […] OXIDASE SUBUNIT 10, PUTATIVE): 1.09
fold change (protein LMJF.23.0830 NA/H ANTIPORTER-LIKE PROTEIN): 0.96
fold change (protein LMJF.23.1020 HY[…], UNKNOWN FUNCTION): 1.14
fold change (protein LMJF.23.1220 T-COMPLEX PROTEIN 1, GAMMA SUBUNIT, PUTATIVE): 1.08
fold change vs vehicle control (protein LMJF.24.0140 ANKYRIN/TPR REPEAT PROTEIN): 1.09
fold change (protein LMJF.24.0280 DYNEIN INTERMEDIATE-CHAIN-LIKE PROTEIN): 0.94
fold change (protein LMJF.24.0770 MALIC ENZYME, PUTATIVE): 1.06
fold change relative to vehicle control (protein LMJF.24.1510 IGE-DEPENDENT HISTAMINE-RELEASING FACTOR, PUTATIVE): 1.53
fold change vs vehicle control (protein LMJF.24.1630, SUCCINATE DEHYDROGENASE FLAVOPROTEIN, PUTATIVE): 1
fold change vs vehicle control (protein LMJF.24.1840 LYSOPHOSPHOLIPASE, PUTATIVE): 1.01
fold change relative to vehicle control (protein LMJF.24.2060 TRANSKETOLASE): 0.99
fold change (protein LMJF.24.2250 FATTY-ACID DESATURASE, PUTATIVE): 1.01
fold change vs vehicle control (protein LMJF.25.0120 ELECTRON TRANSFER FLAVOPROTEIN, PUTATIVE): 1.07
fold change vs vehicle control (protein LMJF.25.0260 DYNEIN LIGHT CHAIN 1, CYTOPLASMIC, PUTATIVE): 1.15
fold change relative to vehicle control (protein LMJF.25.0910 CYCLOPHILIN A): 1.57
fold change vs vehicle control (protein LMJF.25.1180, ATPASE BETA SUBUNIT, PUTATIVE): 1.17
fold change (protein LMJF.25.1610 HY[…], CONSERVED): 1.09
fold change (protein LMJF.25.1620 HY[…], CONSERVED): 1.15
fold change vs vehicle control (protein LMJF.26.1240 HEAT SHOCK PROTEIN 70-RELATED PROTEIN): 1.01
fold change vs vehicle control (protein LMJF.26.1710 […] OXIDASE SUBUNIT V, PUTATIVE): 1.08
fold change vs vehicle control (protein LMJF.26.1960 HY[…], CONSERVED): 1.05
fold change vs vehicle control (protein LMJF.26.2000 HYPOTHETICAL PROTEIN, CONSERVED): 1.23
fold change vs vehicle control (protein LMJF.27.0420 RIBOKINASE, PUTATIVE): 1.18
fold change vs vehicle control (protein LMJF.27.1060 CYSTEINE DESULFURASE, PUTATIVE): 0.93
fold change (protein LMJF.27.1310 ARGINYL-TRNA SYNTHETASE, PUTATIVE): 0.98
fold change vs vehicle control (protein LMJF.27.2400 HEAT SHOCK PROTEIN DNAJ, PUTATIVE): 0.96
fold change vs vehicle control (protein LMJF.28.0110 […] 3 SUBUNIT, PUTATIVE): 1.07
fold change vs vehicle control (protein LMJF.28.0930 HY[…], CONSERVED): 1.12
fold change vs vehicle control (protein LMJF.28.0950 HY[…], CONSERVED): 1.03
fold change vs vehicle control (protein LMJF.28.1950 X-PRO, DIPEPTIDYL-PEPTIDASE,SERINE PEPTIDASE, CLAN SC, FAMILY S15, PUTATIVE): 1.13
fold change relative to vehicle control (protein LMJF.28.2770 HEAT-SHOCK PROTEIN HSP70, PUTATIVE): 1.25
fold change (protein LMJF.29.0060 TRYPTOPHANYL-TRNA SYNTHETASE, PUTATIVE): 1.06
fold change (protein LMJF.29.0820 CYSTEINE PEPTIDASE C (CPC)): 0.82
fold change relative to vehicle control (protein LMJF.29.0850 HIGH MOBILITY GROUP PROTEIN HOMOLOG TDP-1, PUTATIVE): 1.3
fold change vs vehicle control (protein LMJF.29.1160 TRYPAREDOXIN): 1.04
fold change (protein LMJF.29.1760 PARAFLAGELLAR ROD PROTEIN 1D, PUTATIVE): 0.97
fold change vs vehicle control (protein LMJF.29.1780 DIPHTHAMIDE SYNTHESIS PROTEIN, PUTATIVE): 0.98
fold change vs vehicle control (protein LMJF.29.2240 AMINOPEPTIDASE, PUTATIVE): 1.11
fold change (protein LMJF.29.2310 ENOYL-COA HYDRATASE/ISOMERASE-LIKE PROTEIN): 1.08
fold change (protein LMJF.29.2860 40S RIBOSOMAL PROTEIN S19-LIKE PROTEIN): 1.19
fold change vs vehicle control (protein LMJF.30.0850 SURFACE PROTEIN AMASTIN, PUTATIVE): 1.16
fold change (protein LMJF.30.1250 PYRIDOXAL KINASE, PUTATIVE): 1.01
fold change vs vehicle control (protein LMJF.30.3190 3-HYDROXY-3-METHYLGLUTARYL-COA REDUCTASE): 1.04
fold change vs vehicle control (protein LMJF.30.3520 S-ADENOSYL[…]): 1.05
fold change vs vehicle control (protein LMJF.31.0440 CYTOSKELETON-[…] CAP5 5, PUTATIVE): 1
fold change (protein LMJF.31.1130 N-ACYL-L-AMINO ACID AMIDOHYDROLASE, PUTATIVE): 0.8
fold change vs vehicle control (protein LMJF.31.1640 THIOLASE PROTEIN-LIKE PROTEIN): 1.14
fold change (protein LMJF.31.1800 AMINO ACID PERMEASE): 1.08
fold change (protein LMJF.31.2250 3,2-TRANS-ENOYL-COA ISOMERASE, MIT[…], PUTATIVE): 0.92
fold change vs vehicle control (protein LMJF.31.2790 ADP-RI[…], PUTATIVE): 1.1
fold change (protein LMJF.31.3130 […]-COA CARBOXYLASE BIOTINYLATED […]-LIKE PROTEIN): 1.03
fold change (protein LMJF.32.0010 HYPOTHETICAL PROTEIN, CONSERVED): 0.82
fold change vs vehicle control (protein LMJF.32.0400 ATP-DEPENDENT RNA HELICASE, PUTATIVE): 1.03
fold change vs vehicle control (protein LMJF.32.0520 PROFILIN, PUTATIVE): 1
fold change (protein LMJF.32.1000 […]-COMPLEX PROTEIN, PUTATIVE): 1.02
fold change vs vehicle control (protein LMJF.32.3010 HYPOTHETICAL PROTEIN, CONSERVED,LEUCINE-RICH REPEAT PROTEIN, PUTATIVE): 0.99
fold change vs vehicle control (protein LMJF.32.3870 MYOSIN XXI): 0.91
fold change vs vehicle control (protein LMJF.33.0890, HY[…], CONSERVED): 1.05
fold change vs vehicle control (protein LMJF.33.1070 HY[…], UNKNOWN FUNCTION): 1.03
fold change (protein LMJF.33.1330 CYSTEINE CONJUGATE BETA-LYASE, AMINOTRANSFERASE- LIKE PROTEIN): 1.33
fold change (protein LMJF.33.1610 PEPTIDASE M20/M25/M40, PUTATIVE): 1
fold change relative to vehicle control (protein LMJF.33.1630 CYCLOPHILIN 4, PUTATIVE): 1.35
fold change vs vehicle control (protein LMJF.33.2300 UDP-GLC 4'-EPIMERASE, PUTATIVE): 1.15
fold change vs vehicle control (protein LMJF.33.2390 HEAT SHOCK PROTEIN, PUTATIVE): 1.12
fold change (protein LMJF.33.2410 HY[…], CONSERVED): 1.02
fold change (protein LMJF.33.3150 40S RIBOSOMAL PROTEIN S13, PUTATIVE): 1.22
fold change (protein LMJF.34.3500 RUVB-LIKE 1 DNA HELICASE, PUTATIVE): 1.2
fold change (protein LMJF.34.3670 VACUOLAR ATP SYNTHASE CATALYTIC SUBUNIT A, PUTATIVE): 1.09
fold change (protein LMJF.34.3740 SERINE PALMITOYLTRANSFERASE-LIKE PROTEIN): 0.95
fold change (protein LMJF.34.4120 HYPOTHETICAL PROTEIN, CONSERVED): 0.91
fold change vs vehicle control (protein LMJF.34.4370 20S […] 7 SUBUNIT, (PUTATIVE)): 1.06
fold change (protein LMJF.35.0370 ATP-DEPENDENT DEAD-BOX RNA HELICASE, PUTATIVE): 1.03
fold change vs vehicle control (protein LMJF.35.1380, MIT[…], BETA SUBUNIT, PUTATIVE): 1.09
fold change vs vehicle control (protein LMJF.35.1410 THREONYL-TRNA SYNTHETASE, PUTATIVE): 0.97
fold change vs vehicle control (protein LMJF.35.1720 CYCLOPHILIN 14, PUTATIVE): 1.13
fold change (protein LMJF.35.2500 HY[…], CONSERVED): 1.03
fold change (protein LMJF.35.2730 ACYL-COA DEHYDROGENASE, PUTATIVE): 1.02
fold change relative to vehicle control (protein LMJF.35.3010 […],TRYPANOTHIONE-DEPENDENT […]): 1.16
fold change vs vehicle control (protein LMJF.35.3100 ATP-DEPENDENT RNA HELICASE, PUTATIVE): 1.09
fold change vs vehicle control (protein LMJF.35.3340 6-phosphogluconate dehydrogenase): 1.05
fold change (protein LMJF.35.3700 GIM5A PROTEIN, PUTATIVE,[…] PROTEIN): 1.04
fold change vs vehicle control (protein LMJF.35.3840 PROTEASOME BETA 2 SUBUNIT, PUTATIVE): 0.82
fold change vs vehicle control (protein LMJF.35.3860 T-COMPLEX PROTEIN 1, ETA SUBUNIT, PUTATIVE): 1.06
fold change (protein LMJF.35.4550 HYPOTHETICAL PROTEIN, CONSERVED): 0.88
fold change (protein LMJF.35.4770 CYCLOPHILIN 40): 0.93
fold change (protein LMJF.35.4850 PROTEASOME ALPHA 1 SUBUNIT, PUTATIVE): 1.1
fold change (protein LMJF.35.4860 HYPOTHETICAL PROTEIN, CONSERVED): 0.97
fold change relative to vehicle control (protein LMJF.35.5330 ISOPENTENYL-D[…]-ISOMERASE, PUTATIVE,ISOMERASE, PUTATIVE): 1.17
fold change vs vehicle control (protein LMJF.36.0180 ELONGATION FACTOR 2): 1.2
fold change vs vehicle control (protein LMJF.36.0620 HYPOTHETICAL PROTEIN, CONSERVED): 1.47
fold change vs vehicle control (protein LMJF.36.0990 40S RIBOSOMAL PROTEIN S10, PUTATIVE): 1.17
fold change vs vehicle control (protein LMJF.36.2020 CHAPERONIN HSP60, MIT[…]): 1.01
fold change vs vehicle control (protein LMJF.36.3460 HYPOTHETICAL PROTEIN, CONSERVED): 0.88
fold change (protein LMJF.36.3760 60S RIBOSOMAL PROTEIN L10A, PUTATIVE): 1.2
fold change vs vehicle control (protein LMJF.36.3840 GLYCYL TRNA SYNTHETASE, PUTATIVE): 1.06
fold change vs vehicle control (protein LMJF.36.4170 OXIDOREDUCTASE, PUTATIVE): 1.05
fold change vs vehicle control (protein LMJF.36.5010 40S RIBOSOMAL PROTEIN SA, PUTATIVE): 1.14
fold change (protein LMJF.36.5390 PHOSPHORIBOSYLPYROPHOSPHATE SYNTHETASE, PUTATIVE): 0.96
fold change vs vehicle control (protein LMJF.36.5620 ISOLEUCYL-TRNA SYNTHETASE, PUTATIVE): 1.15
fold change vs vehicle control (protein LMJF.36.6430 PROTEIN TRANSPORT PROTEIN SEC23-LIKE PROTEIN): 1.05
fold change (protein LMJF.36.6760 HYPOTHETICAL PROTEIN, CONSERVED): 1.1
fold change vs vehicle control (protein LMJF.36.6910 T-COMPLEX PROTEIN 1, THETA SUBUNIT, PUTATIVE): 1.05
fold change vs vehicle control (protein LMJF.36.6940 disulfide isomerase PDI): 1.3
fold change vs vehicle control (protein LMJF.[…] […] EXOPOLYPHOSPHATASE, PUTATIVE): 0.78
